Here are results for one compound from ChEMBL document CHEMBL3352614, “MoGAT-2 Inhibitors May Provide Effective Treatment for Hypertriglyceridemia” (ACS Med Chem Lett, 2014).

For this assay, the target named is 2-acylglycerol O-acyltransferase 2 (Homo sapiens, UniProt Q3SYC2). As to the kind of experiment: Inhibition of human MoGAT-2 expressed in human Caco2 cells assessed as inhibition of 2-O-Hexadecylglycerol […] pretreated for 30 mins by LC-MS analysis. The format is cell-based, Caco-2.
Sequence of 2-acylglycerol O-acyltransferase 2 (Q3SYC2 whole entry): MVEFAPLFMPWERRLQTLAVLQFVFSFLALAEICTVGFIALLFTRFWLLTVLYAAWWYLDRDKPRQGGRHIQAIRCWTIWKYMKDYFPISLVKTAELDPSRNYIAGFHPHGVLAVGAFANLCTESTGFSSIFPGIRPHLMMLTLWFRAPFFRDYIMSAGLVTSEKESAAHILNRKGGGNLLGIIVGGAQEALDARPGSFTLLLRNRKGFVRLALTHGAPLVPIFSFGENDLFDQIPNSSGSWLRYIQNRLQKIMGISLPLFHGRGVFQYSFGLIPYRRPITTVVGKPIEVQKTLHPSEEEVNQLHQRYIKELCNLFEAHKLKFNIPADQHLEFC

Usually IC50 stands for the concentration needed to halve the response being measured. As to `C[C@@H](NS(C)(=O)=O)c1ccc(CNC[C@@H]2CO[C@@H](c3ccccc3)CO2)cc1`, the IC50 amounted to 294 nM.
